One may read the CC50 as the concentration at which the toxic effect on the cells reaches its halfway point.

Bounds are passed on as bounds.

Our source for the CC50, MIC and hemolysis values is ChEMBL document CHEMBL4393656, “Cationic biaryl 1,2,3-triazolyl peptidomimetic amphiphiles targeting Clostridioides (Clostridium) difficile: Synthesis, antibacterial evaluation and an in vivo C. difficile infection model” (Eur J Med Chem, 2019).

The nature of data set [1]: Cytotoxicity against HEK293 cells assessed as decrease in cell viability after 20 hrs by resazurin dye-based fluorescence assay. The settings on record: human. For orientation: Resazurin is reduced to fluorescent resorufin, in cell work by metabolically active cells.
Data set [2] relates to Enterococcus faecalis. Kind of data set: Growth inhibition of Enterococcus faecalis ATCC 29212 incubated in MHB broth for 24 hrs. Format: organism-based.
A short description of data set [3]: Haemolytic activity in sheep erythrocytes assessed as induction of haemolysis at 5 ug/ml incubated for 2 hrs relative to control. It counts as cell-based, Ovis aries, Erythrocyte. The settings on record: read-out: Activity.
In data set [4] the test system is Klebsiella pneumoniae. Kind of data set: Growth inhibition of Klebsiella pneumoniae ATCC 700603 incubated for 18 hrs. It counts as organism-based.
Data set [5] relates to Escherichia coli. Kind of data set: Growth inhibition of Escherichia coli ATCC 25922 incubated for 18 hrs. Format: organism-based.
Data set [6] concerns Acinetobacter baumannii. Kind of data set: Growth inhibition of Acinetobacter baumannii ATCC 19606 incubated for 18 hrs without shaking by absorbance based monochromator plate reader analysis. It counts as organism-based, ATCC 19606 = CIP 70.34 = JCM 6841. The settings on record: in vitro.
Data set [7] deals with Clostridioides difficile. Kind of data set: Antibacterial activity against Clostridium difficile NSW132 RT027 incubated for 2 to 4 hrs in pre-reduced brucella broth supplemented with haemin/vitamin K and further incubation in anaerobic condition for 48 hrs. It counts as functional.
Data set [8] relates to Staphylococcus aureus. Kind of data set: Growth inhibition of Staphylococcus aureus ATCC 29213 incubated in MHB broth for 24 hrs. It counts as organism-based.
In data set [9] the test system is Pseudomonas aeruginosa. Kind of data set: Growth inhibition of Pseudomonas aeruginosa ATCC 27853 incubated for 18 hrs. Format: organism-based.
Data set [10] deals with Clostridioides difficile. Kind of data set: Antibacterial activity against Clostridium difficile ATCC 700057 incubated for 2 to 4 hrs in pre-reduced brucella broth supplemented with haemin/vitamin K and further incubation in anaerobic condition for 48 hrs. Format: functional.
A short description of data set [11]: Haemolytic activity in sheep erythrocytes assessed as induction of haemolysis at 50 ug/ml incubated for 2 hrs relative to control. Format: cell-based, Ovis aries, Erythrocyte. The settings on record: read-out: Activity.
The test system of data set [12] is Streptococcus pneumoniae. Kind of data set: Growth inhibition of Streptococcus pneumoniae ATCC 49619 incubated in MHB medium with lysed horse blood and 5% CO2 for 24 hrs. It counts as organism-based.
Data set [13] concerns Staphylococcus aureus. Kind of data set: Growth inhibition of methicillin-resistant Staphylococcus aureus ATCC 43300 incubated for 18 hrs. Format: organism-based.
Data set [14] deals with Staphylococcus aureus. Kind of data set: Growth inhibition of methicillin resistant Staphylococcus aureus NCTC 10442 incubated in MHB medium for 24 hrs. Format: organism-based.

Consider `CC(C)CCOc1ccc2ccccc2c1-c1c(OCc2cn([C@H](CCCNC(=N)N)C(=O)N[C@H](CCCCN)Cn3cc(CC4CCCCC4)nn3)nn2)ccc2ccccc12.Cl.Cl`, for which the CC50 at 20 h in data set [1] was above 32 µg/mL. Moreover, the MIC in data set [2] was 4 µg/mL; in data set [4] it was above 32 µg/mL; in data set [5], above 32 µg/mL; in data set [6], 32 µg/mL; in data set [7], 8 µg/mL; in data set [8], 4 µg/mL. In addition, the figures for the MIC in [9], in data set [10] and in data set [12] were 32 µg/mL, 8 µg/mL and 2 µg/mL, respectively. For the same compound, the hemolysis at 2 h, 5 ug/ml in [3] was determined as 1.8%. Moreover, the hemolysis at 2 h, 50 ug/ml in [11] turned out to be 71.5%.

Regarding `CC(C)CCOc1ccc2ccccc2c1-c1c(OCc2cn([C@H](CCCNC(=N)N)C(=O)NCCc3ccccc3)nn2)ccc2ccccc12.Cl`, the cytotoxic concentration (CC50) at 20 h in data set [1] is above 32 µg/mL. Also, the MIC was 4 µg/mL in data set [2]; above 32 µg/mL in data set [4]; above 32 µg/mL in [5]; above 32 µg/mL in data set [6]; 64 µg/mL in [7]; 8 µg/mL in data set [8]. Moreover, the MIC in [9] is above 32 µg/mL; in [10], 16 µg/mL; in data set [13], 8 µg/mL; in data set [12] it was 16 µg/mL. The hemolysis at 2 h, 5 ug/ml in data set [3] came out at 0.1%. Moreover, in data set [11], the hemolysis at 2 h, 50 ug/ml stood at 55.2%.

`CC(C)CCOc1ccc2ccccc2c1-c1c(OCc2cn([C@H](CCCNC(=N)N)C(=O)NCc3ccccc3)nn2)ccc2ccccc12.Cl`: the CC50 at 20 h in data set [1] worked out at 16.5 µg/mL. The MIC in data set [2] is 2 µg/mL; in data set [4] it was above 32 µg/mL; in data set [5], above 32 µg/mL; in [6], above 32 µg/mL; in data set [14], 8 µg/mL; in [7] it was 16 µg/mL. The MIC in data set [8] is 4 µg/mL; in data set [9], above 32 µg/mL; in [10], 16 µg/mL; in [13], 8 µg/mL; in data set [12], 8 µg/mL.

`CC(C)CCOc1ccccc1-c1ccccc1OCc1cn([C@H](CCCNC(=N)N)C(=O)NCc2ccccc2)nn1.Cl`: the half-maximal cytotoxic concentration (CC50) at 20 h in data set [1] amounted to 16.8 µg/mL. Also, the MIC in data set [2] is 8 µg/mL; in data set [4], above 32 µg/mL; in data set [5], above 32 µg/mL; in [6], 32 µg/mL; in [14], 8 µg/mL; in data set [7], 64 µg/mL. The MIC is 4 µg/mL in [8]; above 32 µg/mL in data set [9]; 32 µg/mL in [10]; 8 µg/mL in data set [13]; 4 µg/mL in data set [12].

With `CC(C)CCOc1ccccc1-c1ccccc1OCc1cn([C@H](CCCNC(=N)N)C(=O)N[C@H](CCCCN)Cn2cc(CC3CCCCC3)nn2)nn1.Cl.Cl`, the half-maximal cytotoxic concentration (CC50) at 20 h in data set [1] was above 32 µg/mL. Besides, the MIC was found to be 4 µg/mL in data set [2]; 16 µg/mL in data set [4]; 16 µg/mL in data set [5]; 16 µg/mL in data set [6]; 16 µg/mL in [7]; 4 µg/mL in data set [8]. Besides, the MIC in data set [9] is 16 µg/mL; in data set [10], 8 µg/mL; in [13], 8 µg/mL; in [12], 2 µg/mL. The hemolysis at 2 h, 5 ug/ml in [3] stood at 1.6%. The hemolysis at 2 h, 50 ug/ml in [11] amounted to 33.7%.

As to `CC(C)CCOc1ccc2ccccc2c1-c1c(OCc2cn([C@H](CCCCN)C(=O)N[C@H](CCCNC(=N)N)Cn3cc(CCc4ccccc4)nn3)nn2)ccc2ccccc12.Cl.Cl`, the CC50 at 20 h in [1] is above 32 µg/mL. The MIC in [2] is 4 µg/mL; in [4], above 32 µg/mL; in [5], above 32 µg/mL; in [6] it was 8 µg/mL; in data set [7], 16 µg/mL; in [8] it was 4 µg/mL. Moreover, the MIC in data set [9] was determined as 16 µg/mL; in [10] it was 16 µg/mL; in data set [13], 2 µg/mL; in data set [12], 4 µg/mL. Also, the hemolysis at 2 h, 5 ug/ml in [3] came out at 1.5%. The hemolysis at 2 h, 50 ug/ml in data set [11] worked out at 75.2%.

Consider `CC(C)CCOc1ccccc1-c1ccccc1OCc1cn([C@H](CCCCN)C(=O)NCCc2ccc(F)cc2)nn1.Cl`, for which the CC50 at 20 h in data set [1] came out at 5.5 µg/mL. In addition, the MIC in [2] is 8 µg/mL; in [4], above 32 µg/mL; in data set [5], above 32 µg/mL; in data set [6] it was 16 µg/mL; in data set [14] it was 8 µg/mL; in [7], 64 µg/mL. In addition, the MIC in data set [8] was 4 µg/mL; in data set [9] it was above 32 µg/mL; in [10], 32 µg/mL; in data set [13], 8 µg/mL; in data set [12] it was 8 µg/mL.

For the compound `CC(C)CCOc1ccccc1-c1ccccc1OCc1cn([C@H](CCCNC(=N)N)C(=O)NCC2CCCCC2)nn1.Cl`, the CC50 at 20 h in [1] is 16.9 µg/mL. Also, the MIC in data set [2] is 8 µg/mL; in data set [4] it was above 32 µg/mL; in [5], above 32 µg/mL; in data set [6], above 32 µg/mL; in [7], 64 µg/mL; in [8], 4 µg/mL. For the same compound, the MIC was above 32 µg/mL in [9], 32 µg/mL in data set [10], 4 µg/mL in data set [13] and 8 µg/mL in data set [12].

Take `CC(C)CCOc1ccccc1-c1ccccc1OCc1cn([C@H](CCCCN)C(=O)N[C@H](CCCNC(=N)N)Cn2cc(CC3CCCCC3)nn2)nn1.Cl.Cl`: the CC50 at 20 h in data set [1] was determined as 19.1 µg/mL. Moreover, the MIC in [2] turned out to be 4 µg/mL; in [4], 16 µg/mL; in data set [5], 8 µg/mL; in [6] it was 8 µg/mL; in data set [7] it was 16 µg/mL; in [8], 4 µg/mL. Further, the MIC was determined as 32 µg/mL in [9], 16 µg/mL in data set [10], 2 µg/mL in data set [13] and 8 µg/mL in data set [12].

`CC(C)CCOc1ccccc1-c1ccccc1OCc1cn([C@H](CCCNC(=N)N)C(=O)NCCc2ccc(F)cc2)nn1.Cl`: the CC50 at 20 h in [1] came to 19.1 µg/mL. For the same compound, the MIC in [2] is 4 µg/mL; in data set [4], above 32 µg/mL; in data set [5], above 32 µg/mL; in data set [6], above 32 µg/mL; in [7], 64 µg/mL; in data set [8], 4 µg/mL. The MIC was above 32 µg/mL in data set [9], 64 µg/mL in [10], 16 µg/mL in [13] and 4 µg/mL in data set [12].

On to `CC(C)CCOc1ccccc1-c1ccccc1OCc1cn([C@H](CCCNC(=N)N)C(=O)Nc2cccc(F)c2)nn1.Cl`, for which the 50% cytotoxic concentration (CC50) at 20 h in data set [1] is above 32 µg/mL. Besides, the MIC in [2] was 8 µg/mL; in [4], above 32 µg/mL; in data set [5], above 32 µg/mL; in data set [6] it was above 32 µg/mL; in data set [14] it was 8 µg/mL; in data set [7], 64 µg/mL. Moreover, the MIC was 4 µg/mL in data set [8]; above 32 µg/mL in data set [9]; 32 µg/mL in data set [10]; 4 µg/mL in [13]; 8 µg/mL in data set [12].

Take `CC(C)CCOc1ccccc1-c1ccccc1OCc1cn([C@H](CCCNC(=N)N)C(=O)N[C@H](CCCCN)Cn2cc(CCc3ccccc3)nn2)nn1.Cl.Cl`: the CC50 at 20 h in [1] was above 32 µg/mL. Besides, the MIC in [2] was determined as 8 µg/mL; in data set [4], 16 µg/mL; in [5] it was 16 µg/mL; in data set [6], 32 µg/mL; in data set [14] it was 8 µg/mL; in data set [7] it was 16 µg/mL. The MIC was 4 µg/mL in [8]; 16 µg/mL in [9]; 16 µg/mL in [10]; 4 µg/mL in data set [13]; 2 µg/mL in data set [12].

Consider `COc1cc(NC(=O)[C@@H](CCCNC(=N)N)n2cc(COc3ccccc3-c3ccccc3OCCC(C)C)nn2)cc(OC)c1.Cl`, for which, in [1], the CC50 at 20 h was 12.2 µg/mL. The MIC in data set [2] was 4 µg/mL; in data set [4], above 32 µg/mL; in data set [5], above 32 µg/mL; in data set [6], above 32 µg/mL; in data set [7] it was 32 µg/mL; in data set [8] it was 4 µg/mL. Besides, the MIC is above 32 µg/mL in data set [9], 32 µg/mL in [10], 8 µg/mL in data set [13] and 4 µg/mL in data set [12].
